Activity data for nine molecules are collected here from ChEMBL document CHEMBL1157994, “Three new metabolites from marine-derived fungi of the genera coniothyrium and microsphaeropsis” (J Nat Prod, 1999).

Holding throughout (type): functional, organism-based
In test [1] the test system is Aspergillus pseudoglaucus. Kind of test: Antifungal activity against Eurotium repens at 50 ug by agar diffusion test. For orientation: In agar diffusion tests the substance spreads into inoculated agar from a disc or well.
Test [2] deals with Microbotryum violaceum. Kind of test: Antifungal activity against Ustilago violacea at 50 ug by agar diffusion test.
The subject of test [3] is Mycotypha microspora. Kind of test: Antifungal activity against Mycotypha microspora at 50 ug by agar diffusion test.
Test [4] concerns Priestia megaterium. Kind of test: […] activity against Bacillus megaterium at 50 ug by agar diffusion test.

The source made the active and inactive calls. The rule behind the calls is not given here.

As for `O=C1CCC(O)c2cccc(O)c21` (stereo not drawn), the outcome in test [1] and in test [2] was Active. `CO[C@]12C=C3C=CC(=O)[C@@H](C)[C@@]3(C)C[C@@]1(O)[C@H](C)CO2`: the outcome in test [1] and in test [2] was Active. Take `C[C@@H]1Cc2cccc(O)c2C(=O)O1`: the outcome in test [1] was Active. For `COc1cc2c(c(O)c1Cl)C(=O)O[C@H](C)C2`, the result in test [1] was Active. Regarding `C[C@H]1OC(=O)c2c(O)cccc2[C@H]1O`, the result in test [1] and in test [2] was Active. As to `CC(=O)[C@@H](C)c1cc(O)cc(O)c1`, the result in test [2] and in test [3] was Active. Take `OCc1ccco1`: in test [4], the result was Active. `COc1cc(O)c2c(c1)C[C@@H](C)OC2=O`: in test [1], the result was Active. For the molecule `C[C@H]1OC(=O)c2c(O)cccc2[C@@H]1O`, in test [2], the outcome was Active.
